Measurements taken from US8343990B2, “Substituted cyclopropyl compounds, compositions containing such compounds and methods of treatment” (Merck Sharp & Dohme Corp., priority 2008, dated 2013).

These molecules were tested against T1, GPR119 receptor (UniProt Q8TDV5, S309L, species not given) (assay: GPR119 signaling, cyclic AMP (cAMP) homogenous time resolved fluorescence (HTRF) assay). Conditions: CHO cells with Gα15 and murine GPR119, or HEK293 Flp-In cells with human GPR119 S309L; table does not say which; read-out: Activity: inflection points, denoted as EC50 values (agonist activation of GPR119, cAMP).
T1 sequence (Q8TDV5 1-335 S309L): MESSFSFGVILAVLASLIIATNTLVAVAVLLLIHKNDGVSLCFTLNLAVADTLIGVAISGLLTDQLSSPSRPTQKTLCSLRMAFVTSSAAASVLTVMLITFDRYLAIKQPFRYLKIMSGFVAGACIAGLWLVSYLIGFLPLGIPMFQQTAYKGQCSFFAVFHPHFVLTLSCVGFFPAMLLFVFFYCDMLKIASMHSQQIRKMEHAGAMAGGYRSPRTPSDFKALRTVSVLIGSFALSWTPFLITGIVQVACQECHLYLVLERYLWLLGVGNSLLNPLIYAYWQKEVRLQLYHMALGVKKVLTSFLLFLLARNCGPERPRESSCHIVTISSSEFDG
Type: cell-based
From the text: Measurement of GPR119 Signaling Using a Cyclic AMP (cAMP) Homogenous Time Resolved Fluorescence (HTRF) Assay
Chinese hamster ovary (CHO) cell lines stably transfected with the permissive guanine nucleotide binding protein alpha 15 (Gα15) and […] GPR119 were maintained in DMEM media containing FBS, penicillin-streptomycin, puromycin, and G418 (geneticin). Alternatively, human embryonic kidney (HEK)293 Flp-In cells (Invitrogen, Carlsbad, Calif.) were stably transfected with a human SNP variant (S309L) of GPR119 and maintained in DMEM media containing FBS, penicillin-streptomycin, and hygromycin. Agonist activation of the GPR119 receptor was measured in receptor transfected cells described above, treated with compounds of this invention, using a commercial homogenous time resolved fluorescence (HTRF) kit for measurement of cAMP (CisBio, Bedford, Mass.). The assay was performed in 96-well half-volume plates (murine) or 384-well plates (human) following the manufacturers instructions. Briefly, suspended cells were incubated with a dose titration of test compound at room temperature for 60 min, lysed, and incubated with HTRF reagents for an additional 60 min. The plate was read using an Envision multilabel reader (Perkin Elmer) adjusted to read time resolved fluorescence and the cAMP concentrations were extrapolated from a cAMP calibration curve. […] The concentration of test compound required to stimulate a half-maximal response (EC50), and efficacy as compared to an internal agonist control, was determined from a sigmoidal 4-parameter curve fit of the resulting plot of normalized activity versus compound concentration.

Row | EC50 [nM] | Structure (SMILES)
1 | < 10 | Fc1cc(OCCC2CC2C2CCN(c3ncc(Cl)cn3)CC2)ccc1-n1cnnn1 (racemic) [Ex 30b, rac cis-5-chloro-2-[4-(2-{2-[3-fluoro-4-(1H-tetrazol-1-yl)phenoxy]ethyl}cyclopropyl)piperidin-1-yl]pyrimidine]
2 | < 10 | Cc1cnc(N2CCC(C3CC3CCOc3ccc(-n4cnnn4)c(F)c3)CC2)nc1 (racemic) [Ex 30e, rac cis-2-[4-(2-{2-[3-fluoro-4-(1H-tetrazol-1-yl)phenoxy]ethyl)cyclopropyl)piperidin-1-yl]-5-methylpyrimidine]
3 | < 10 | Cc1nnn(-c2ccc(OCCC3CC3C3CCN(c4ncc(Cl)cn4)CC3)cc2)n1 (racemic) [Ex 31a, rac cis-5-chloro-2-[4-(2-{2-[4-(5-methyl-2H-tetrazol-2-yl)phenoxy]ethyl}cyclopropyl)piperidin-1-yl]pyrimidine]
4 | 10 to 50 | Cc1nnnn1-c1ccc(OCCC2CC2C2CCN(c3ncc(Cl)cn3)CC2)cc1 (racemic) [Ex 31b, rac cis-5-chloro-2-[4-(2-{2-[4-(5-methyl-1H-tetrazol-1-yl)phenoxy]ethyl}cyclopropyl)piperidin-1-yl]pyrimidine]
5 | < 10 | Cc1nnc(-c2ccc(OCCC3CC3C3CCN(c4ncc(Cl)cn4)CC3)cc2F)o1 (racemic) [Ex 32, rac cis-5-chloro-2-[4-(2-{2-[3-fluoro-4-(5-methyl-1,3,4-oxadiazol-2-yl)phenoxy]ethyl}cyclopropyl)piperidin-1-yl]pyrimidine]
6 | 50 to 200 | CC(=O)c1ccc(OCC[C@@H]2C[C@@H]2C2CCN(c3ncc(Cl)cn3)CC2)cc1 (racemic) [Ex 35, Rac-cis-1-[4-(2-{2 [1-(5-chloropyrimidin-2-yl)piperidin-4-yl]cyclopropyl}ethoxy)phenyl]ethanone]
7 | 50 to 200 | N#Cc1cncc(OCC[C@@H]2C[C@@H]2C2CCN(c3ncc(Cl)cn3)CC2)c1 (racemic) [Ex 50, Rac-cis-5-(2-{2-[1-(5-chloropyrimidin-2-yl)piperidin-4-yl]cyclopropyl}ethoxy)nicotinonitrile]
8 | < 10 | Cc1nc(C#N)cc(OCC[C@@H]2C[C@@H]2C2CCN(c3ncc(Cl)cn3)CC2)n1 (racemic) [Ex 51, Rac-cis-6-(2-{2-[1-(5-chloropyrimidin-2-yl)piperidin-4-yl]cyclopropyl}ethoxy)-2-methylpyrimidine-4-carbonitrile]
9 | 50 to 200 | N#Cc1ccc(OCC[C@@H]2C[C@@H]2C2CCN(c3ncc(Cl)cn3)CC2)cn1 (racemic) [Ex 54, Rac-cis-5-(2-{2-[1-(5-chloropyrimidin-2-yl)piperidin-4-yl]cyclopropyl}ethoxy)pyridine-2-carbonitrile]
10 | 10 to 50 | Clc1cnc(N2CCC([C@@H]3C[C@@H]3CCOc3ccncc3)CC2)nc1 (racemic) [Ex 55, Rac-cis-5-chloro-2-(4-{2-[2-(pyridin-4-yloxy)ethyl]cyclopropyl}piperidin-1-yl)pyrimidine]
11 | < 10 | Cc1cnc(N2CCC([C@@H]3C[C@@H]3CCOc3ccc(-c4nnc(C)o4)c(F)c3)CC2)nc1 (racemic) [Ex 84, rac-cis-2-[4-(2-{2-[3-fluoro-4-(5-methyl-1,3,4-oxadiazol-2-yl)phenoxy]ethyl}cyclopropyl)piperidin-1-yl]-5-methylpyrimidine]
12 | < 10 | Cc1nnc(-c2ccc(OCC[C@H]3C[C@H]3C3CCN(c4ncccn4)CC3)cc2F)o1 (racemic) [Ex 85, Rac-cis-2-[4-(2-{2-[3-fluoro-4-(5-methyl-1,3,4-oxadiazol-2-yl)phenoxy]ethyl}cyclopropyl)piperidin-1-yl]pyrimidine]
13 | < 10 | Cc1nnc(-c2ccc(OCC[C@H]3C[C@H]3C3CCN(c4ncc(F)cn4)CC3)cc2F)o1 (racemic) [Ex 86, Rac-cis-5-fluoro-2-[4-(2-{2-[3-fluoro-4-(5-methyl-1,3,4-oxadiazol-2-yl)phenoxy]ethyl}cyclopropyl)piperidin-1-yl]pyrimidine]

The next lines start with the molecule.

Row | Structure (SMILES) | EC50 [nM]
14 | Fc1cnc(N2CCC(C3CC3CCOc3ccc(-n4cnnn4)c(F)c3)CC2)nc1 (racemic) [Ex 30d] | < 10
15 | Clc1cnc(N2CCC(C3CC3CCOc3ccc(-n4ncnn4)cc3)CC2)nc1 (racemic) [Ex 31, rac cis-5-chloro-2-[4-(2-{2-[4-(2H-tetrazol-2-yl)phenoxy]ethyl}cyclopropyl)piperidin-1-yl]pyrimidine] | 10 to 50
16 | N#Cc1cc(OCC[C@@H]2C[C@@H]2C2CCN(c3ncc(Cl)cn3)CC2)ncn1 (racemic) [Ex 37, Rac-cis-6-(2-{2-[1-(5-chloropyrimidin-2-yl)piperidin-4-yl]cyclopropyl}ethoxy)pyrimidine-4-carbonitrile] | < 10
17 | N#Cc1nccc(OCC[C@@H]2C[C@@H]2C2CCN(c3ncc(Cl)cn3)CC2)n1 (racemic) [Ex 38, Rac-cis-4-(2-{2-[1-(5-chloropyrimidin-2-yl)piperidin-4-yl]cyclopropyl}ethoxy)pyrimidine-2-carbonitrile] | 10 to 50
18 | Cc1cnc(N2CCC([C@H]3C[C@H]3CCOc3cc(C#N)nc(C)n3)CC2)nc1 (racemic) [Ex 40, Rac-cis-2-methyl-6-(2-{2-[1-(5-methylpyrimidin-2-yl)piperidin-4-yl]cyclopropyl}ethoxy)pyrimidine-4-carbonitrile] | < 10
19 | Cc1cnc(N2CCC([C@H]3C[C@H]3CCOc3cc(C)nc(C)n3)CC2)nc1 (racemic) [Ex 41, Rac-cis-2,4-dimethyl-6-(2-{2-[1-(5-methylpyrimidin-2-yl)piperidin-4-yl]cyclopropyl}ethoxy)pyrimidine] | 10 to 50
20 | Cc1nc(C#N)cc(OCC[C@@H]2C[C@@H]2C2CCN(c3ncc(Cl)c(C)n3)CC2)n1 (racemic) [Ex 42, Rac-cis-6-(2-{2-[1-(5-chloro-4-methylpyrimidin-2-yl)piperidin-4-yl]cyclopropyl}ethoxy)-2-methylpyrimidine-4-carbonitrile] | < 10
21 | Cc1nc(C#N)cc(OCC[C@@H]2C[C@@H]2C2CCN(c3ccc(Cl)cn3)CC2)n1 (racemic) [Ex 43, Rac-cis-6-(2-{2-[1-(5-chloropyridin-2-yl)piperidin-4-yl]cyclopropyl}ethoxy)-2-methylpyrimidine-4-carbonitrile] | < 10
22 | Cc1nc(C#N)cc(OCC[C@@H]2C[C@@H]2C2CCN(c3ncc(C)c(C)n3)CC2)n1 (racemic) [Ex 44, Rac-cis-6-(2-{2-[1-(4,5-dimethylpyrimidin-2-yl)piperidin-4-yl]cyclopropyl}ethoxy)-2-methylpyrimidine-4-carbonitrile] | 10 to 50
23 | Cc1nc(C#N)cc(OCC[C@@H]2C[C@@H]2C2CCN(c3cc(C)c(Cl)cn3)CC2)n1 (racemic) [Ex 45, Rac-cis-6-(2-{2-[1-(5-chloro-4-methylpyridin-2-yl)piperidin-4-yl]cyclopropyl}ethoxy)-2-methylpyrimidine-4-carbonitrile] | 10 to 50
24 | Cc1nc(C#N)cc(OCC[C@@H]2C[C@@H]2C2CCN(c3ncc(F)c(C)n3)CC2)n1 (racemic) [Ex 46, Rac-cis-6-(2-{2-[1-(5-fluoro-4-methylpyrimidin-2-yl)piperidin-4-yl]cyclopropyl}ethoxy)-2-methylpyrimidine-4-carbonitrile] | < 10
25 | Cc1nc(C#N)cc(OCC[C@@H]2C[C@@H]2C2CCN(c3ccc(C(F)(F)F)cn3)CC2)n1 (racemic) [Ex 47, Rac-cis-2-methyl-6-[2-(2-{1-[5-(trifluoromethyl)pyridin-2-yl]piperidin-4-yl}cyclopropyl)ethoxy]pyrimidine-4-carbonitrile] | < 10
26 | Clc1cnc(N2CCC([C@@H]3C[C@@H]3CCOc3cccnc3)CC2)nc1 (racemic) [Ex 48, Rac-cis-5-chloro-2-(4-{2-[2-(pyridin-3-yloxy)ethyl]cyclopropyl}piperidin-1-yl)pyrimidine] | > 200
27 | Clc1cnc(N2CCC(C3CC3CCOc3ccncn3)CC2)nc1 (racemic) [Ex 49, Rac-cis-5-chloro-2-(4-{2-[2-(pyrimidin-4-yloxy)ethyl]cyclopropyl}piperidin-l-yl)pyrimidine] | 50 to 200
28 | Cc1cc(OCC[C@@H]2C[C@@H]2C2CCN(c3ncc(Cl)cn3)CC2)nc(C#N)n1 (racemic) [Ex 52, Rac-cis-4-(2-{2-[1-(5-chloropyrimidin-2-yl)piperidin-4-yl]cyclopropyl}ethoxy)-6-methylpyrimidine-2-carbonitrile] | < 10
29 | Cc1nc(C#N)cc(OCC[C@@H]2C[C@@H]2C2CCN(c3ncc(F)cn3)CC2)n1 (racemic) [Ex 53, Rac-cis-6-(2-{2-[1-(5-fluoropyrimidin-2-yl)piperidin-4-yl]cyclopropyl}ethoxy)-2-methylpyrimidine-4-carbonitrile] | < 10
